Data taken from patent US9944606B2, “Cannabinoid receptor modulators” (Arena Pharmaceuticals, Inc., priority 2009, dated 2018).

How the values were obtained:
[1] = tested on: MIA model of osteoarthritis; test: MIA model of osteoarthritis pain (von Frey, weight distribution, grip strength); type: in vivo, Sprague Dawley rats; details: MIA rats, 3, 10 and 30 mg/kg orally, one hour after dosing, FIG. 2
From the text: Injection of monosodium iodoacetate (MIA) into a joint (Kalbhen, 1987) inhibits the activity of glyceraldehyde-3-phosphate dehydrogenase in chondrocytes, resulting in disruption of glycolysis and eventually in cell death. The progressive loss of chondrocytes results in histological and morphological changes of the articular cartilage, closely resembling those seen in osteoarthritis patients.
The osteoarthritis was induced in 200 g male Sprague Dawley rats. […]
Typically during disease progression, there was an inflammation period of 0-7 days post-intra-articular injection followed by progressive degeneration of the cartilage and subchondral bone from days 14-55. […] Tactile allodynia was measured via von Frey assay, hind limb paw weight distribution was monitored using an incapacitence tester (Columbus Instruments, Columbus, Ohio, USA) and hind limb grip strength was measured using a grip strength meter (Columbus Instruments, Columbus, Ohio, USA). […] Hind paw weight distribution was determined by placing rats in a chamber so that each hind paw rests on a separate force plate of the incapacitence tester. The force exerted by each hind limb (measured in grams) is averaged over a 3 second period. Three measurements were taken for each rat, and the change in hind paw weight distribution calculated. […]

[2] = tested on: paclitaxel-induced allodynia; test: Paclitaxel-induced allodynia in Sprague Dawley rats; type: in vivo; details: 10 mg/kg orally, FIG. 3
Method: Animals: Male Sprague Dawley rats [200-250 g] (Harlan Laboratories Inc., Livermore, Calif.) were housed three per cage and maintained in a humidity-controlled (40-60%) and temperature-controlled (68-72° F.) facility on a 12 h:12 h light/dark cycle (lights on at 6:30 am) with free access to food (Harlan Teklad, Orange, Calif., Rodent Diet 8604) and water. Rats were allowed one week of habituation to the animal facility before starting treatment.
Induction of Allodynia: Rats were treated intraperitoneally, with 2 mg/kg of paclitaxel (Sigma Aldrich, Saint Louis, Mo.) in 10% Cremophor vehicle (500 μL) on days 0, 2, 4, and 6.
Clinical scoring: Tactile allodynia was tested using von Frey filaments. Briefly, the von Frey assay was performed using the standardized up down method with von Frey filaments, that determine the tactile sensitivity of the paw. By applying the increasingly or decreasingly thicker filaments to the paw in a logarithmic scale of actual force, a linear scale of perceived intensity is determined
Drug treatment: Eight days after the start of paclitaxel dosing, a baseline measurement (von Frey assay) was performed prior to dosing of compounds. […] As a positive control, rats were dosed intraperitoneally with 100 mg/kg gabapentin in water. The dosing volume for oral and peritoneal treatment was 500 μL. […]

[3] = tested on: FCA-induced hyperalgesia model of inflammatory pain; test: FCA-induced hyperalgesia in rats; type: in vivo, Sprague Dawley rats; details: FCA rats, 0.1, 1, 3, 10 and 30 mg/kg orally, 1 h post dosing, Analgesy-Meter, FIG. 1
Method: Animal Info: Male Sprague Dawley rats from Harlan (200-225 g when received) were used. Upon arrival, rats were housed 4 per cage in shoe-box polycarbonate cages with wire tops, wood chip bedding and suspended food and water bottles Animals were acclimated for 5-7 days prior to being injected with Freund's complete adjuvant (FCA) (Sigma; catalog #5881).
Experimental procedure: 2 days (48 h) before testing compounds, baseline readings of all rats were taken right before FCA injection. Rats were then injected with 50 μL FCA containing 1 mg/mL Mtb (Mycobacterium tuberculosis) in right hind footpad under inhalation anesthesia (isoflurane). 48 hours after FCA injection, readings were taken as pre-dosing baseline and then rats were dosed orally with 0.5 mL of vehicle or compound (0.5 mL per 250 g rat). Readings were taken again at 1 h post dosing. All readings were taken with an Analgesy-Meter (Ugo Basile) which measures mechanical hyperalgesia via paw pressure.
Clinical scoring: FCA-induced hyperalgesia was tested with an Analgesy-Meter. Briefly, the Analgesy Meter applied an increasing pressure to the right hind paw. The paw withdrawal threshold was the pressure leading to withdrawal.
Meanwhile a group of rats were dosed orally with 50 mg/kg of Diclofenac as a positive control. Readings were taken again at 1 h post dosing. Dosing volume was 500 μL per 250 g rat.

[4] = tested on: streptozotocin-induced painful diabetic peripheral neuropathy; test: Streptozotocin-induced painful diabetic peripheral neuropathy (PDPN) model; type: in vivo, Sprague-Dawley rats; details: diabetic allodynic rats, 10 mg/kg orally in 0.5% methylcellulose, 1, 4 and 6 hours post-dosing, FIG. 17 and FIG. 18
Method: Male Sprague-Dawley rats were injected intraperitoneally with 50 mg/kg of streptozotocin (STZ) in sodium citrate buffer. 10% sucrose water was provided ad libitum for the first 48 hours post-STZ followed by regular drinking water. Rats were monitored once weekly for blood glucose levels and body weights. Development of tactile allodynia over time was analyzed using Von Frey filaments and a 50% withdrawal threshold was determined using Dixon's up-down procedure. […] Tactile allodynia was evaluated at 1, 4 and 6 hours post-dosing.

hCB1 = hCB1 (Homo sapiens (Human), UniProt P21554); test: Radioligand binding assay, hCB1; details: NR = No Response
human CB2 receptor = human CB2 receptor (Homo sapiens (Human), UniProt P34972); test: Radioligand binding assay ([3H]CP55,940 / [3H]WIN55,212-2), hCB2; details: HEK293 membranes expressing human CB2, NR = No Response
Method: Preparation of Membranes: HEK293 cells stably expressing human CB2 receptor were collected, washed in ice cold PBS, and centrifuged at 48,000×g for 20 min at 4° C. The cell pellet was then collected, resuspended in wash buffer (20 mM HEPES, pH 7.4 and 1 mM EDTA), homogenized on ice using a Brinkman Polytron, and centrifuged at 48,000×g for 20 min at 4° C. The resultant pellet was resuspended in ice cold 20 mM HEPES, pH 7.4, homogenized again on ice, recentrifuged for 20 min at 4° C., and membrane pellets were then stored at −80° C. until needed.
[…] and [^3H]WIN55, 212-2 Radioligand Binding Assays: Radioligand binding assays for human CB2 receptors were performed using two different agonist radioligands, [^3H]CP55,940 and [^3H]WIN55, 212-2 and similar assay conditions. For both assays, nonspecific binding was determined in the presence of 10 μM unlabeled compound. […] Then, 25 μL of BetaScint scintillation cocktail was added to each well, and plates were read in a Packard TopCount scintillation counter.

SMILES: CC(C)(CO)NC(=O)c1nn(-c2ccc(F)cc2F)c2c1C[C@H]1C[C@@H]21 [Compound 493, (1aR,5aR)-2-(2,4-Difluoro-phenyl)-1a,2,5,5a-tetrahydro-1H-2,3-diaza-cyclopropa[a]pentalene-4-carboxylic Acid (2-Hydroxy-1,1-dimethyl-ethyl)-amide]
- paw withdrawal threshold (PWT) in comparison with vehicle, therapeutic efficacy [1]: Increase in paw withdrawal threshold (PWT)
- time of maximum efficacy post-dosing ([2]; time course): 1 h
- paw withdrawal threshold (PWT) in comparison with vehicle and gabapentin, therapeutic efficacy ([2]; von Frey 30, 60 and 180 minutes after dosing): increase in paw withdrawal threshold (PWT)
- paw withdrawal threshold (PWT) in comparison with vehicle, therapeutic efficacy [3]: increase in paw withdrawal threshold (PWT)

SMILES: CC(C)(C)[C@@H](CO)NC(=O)c1nn(-c2c[n+]([O-])ccn2)c2c1C[C@@H]1C[C@H]21 [Compound 699, (1aS,5aS)-2-(4-Oxy-pyrazin-2-yl)-1a,2,5,5a-tetrahydro-1H-2,3-diaza-cyclopropa[a]pentalene-4-carboxylic Acid ((S)-1-Hydroxymethyl-2,2-dimethyl-propyl)-amide]
- analgesic efficacy (tactile allodynia, 50% withdrawal threshold) [4]: robust and sustained analgesic efficacy over 6 hours

SMILES: CNC(=O)[C@@H](NC(=O)c1nn(-c2c[n+]([O-])ccn2)c2c1C[C@@H]1C[C@H]21)C(C)(C)C [Compound 701]
- Ki (hCB1): 105 nM

SMILES: CONC(=O)[C@@H](NC(=O)c1nn(-c2c[n+]([O-])ccn2)c2c1C[C@H]1C[C@@H]21)C(C)(C)C [Compound 755]
- Ki (human CB2 receptor): 3.8 nM
- Ki (hCB1): 1200 nM

SMILES: CC(C)(NC(=O)c1nn(-c2c[n+]([O-])ccn2)c2c1C[C@@H]1C[C@H]21)C(F)(F)F [Compound 919, (1aS,5aS)-2-(4-Oxy-pyrazin-2-yl)-1a,2,5,5a-tetrahydro-1H-2,3-diaza-cyclopropa[a]pentalene-4-carboxylic acid (2,2,2-trifluoro-1,1-dimethyl-ethyl)-amide]
- analgesic efficacy (tactile allodynia, 50% withdrawal threshold) [4]: robust and sustained analgesic efficacy over 6 hours
